Test results as given in US20250171459A1, “2-METHYL-4',5'-DIHYDROSPIRO[PIPERIDINE-4,7'-THIENO[2,3-C]PYRAN] DERIVATIVES AS INHIBITORS OF APOL1 AND METHODS OF USING SAME” (Vertex Pharmaceuticals Incorporated, priority 2022, published 2025).

Target: T1, APOL1 (Homo sapiens, UniProt O14791)
T1 sequence (O14791 1-398 S342G/I384M): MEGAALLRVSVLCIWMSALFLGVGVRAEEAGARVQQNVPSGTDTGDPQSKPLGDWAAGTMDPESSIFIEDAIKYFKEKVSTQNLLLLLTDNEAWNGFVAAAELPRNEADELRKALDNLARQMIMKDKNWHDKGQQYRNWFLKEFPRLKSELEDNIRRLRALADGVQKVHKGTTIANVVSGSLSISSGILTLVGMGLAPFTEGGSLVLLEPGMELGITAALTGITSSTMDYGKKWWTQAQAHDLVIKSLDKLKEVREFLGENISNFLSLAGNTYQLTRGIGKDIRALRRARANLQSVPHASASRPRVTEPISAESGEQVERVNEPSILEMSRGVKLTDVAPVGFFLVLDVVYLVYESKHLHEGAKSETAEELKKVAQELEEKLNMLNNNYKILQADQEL
Experiment: MultiTox-Fluor Multiplex Cytotoxicity Assay in tet-inducible APOL1 T-REx-HEK293 cells (cell rescue, ratio of dead to live cells)
Format: cell-based
Conditions: tet-inducible transgenic APOL1 T-REx-HEK293 cell lines, 50 ng/mL tet, 24 hours; read-out: IP50 (i.e., IC50 for cell proliferation)
In short: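 T-REx-HEK293 cells with tet-inducible APOL1 were treated with compound (10 μM top, 10-point 3-fold dilution, duplicate) plus 50 ng/mL tetracycline for 24 h at 37° C, in DMEM with 2% tet-free FBS. MultiTox-Fluor protease signals gave a dead/live ratio, normalized to no tet (100% viability) and tet alone (0%).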

With CNC(=O)[C@@H](O)CN1CC[C@]2(C[C@@H]1C)OCCc1cc(C(F)(F)F)sc12 [Compound 869, (2S)-2-hydroxy-N-methyl-3-[(2′S, 7R)-2′-methyl-2-(trifluoromethyl)spiro[4,5-dihydrothieno[2,3-c]pyran-7,4′-piperidine]-1′-yl]propanamide] as the molecule, how does the IC50 read?
Its IC50 is 500 to 1000 nM.

With C[C@H]1C[C@@]2(CCN1Cc1cn(CCS(C)(=O)=O)nn1)OCCc1cc(C(F)(F)F)sc12 [Compound 870, (2′S, 7R)-2′-methyl-1′-[[1-(2-methylsulfonylethyl)triazol-4-yl]methyl]-2-(trifluoromethyl)spiro[4,5-dihydrothieno[2,3-c]pyran-7,4′-piperidine]] as the molecule, how does the IC50 read?
The IC50 was less than 100 nM.

C[C@H]1C[C@@]2(CCN1Cc1cn(CCS(C)(=O)=O)nn1)OCCc1c2sc(C(F)(F)F)c1CO [Compound 871, [(2′S, 7R)-2′-methyl-1′-[[1-(2-methylsulfonylethyl)triazol-4-yl]methyl]-2-(trifluoromethyl)spiro[4,5-dihydrothieno[2,3-c]pyran-7,4′-piperidine]-3-yl]methanol] was tested. Which IC50 did it give?
The IC50 was less than 100 nM.

How did the IC50 turn out when C[C@H]1C[C@@]2(CCN1Cc1cnn(CCS(C)(=O)=O)c1)OCCc1c2sc(C(F)(F)F)c1CO [Compound 872, [(2′S,7R)-2′-methyl-1′-[[1-(2-methylsulfonylethyl)pyrazol-4-yl]methyl]-2-(trifluoromethyl)spiro[4,5-dihydrothieno[2,3-c]pyran-7,4′-piperidine]-3-yl]methanol] was run?
Its IC50 is less than 100 nM.

With C[C@H]1C[C@@]2(CCN1Cc1cn[nH]c1)OCCc1c2sc(C(F)(F)F)c1CO [Compound 873, [(2′S, 7R)-2′-methyl-1′-(1H-pyrazol-4-ylmethyl)-2-(trifluoromethyl)spiro[4,5-dihydrothieno[2,3-c]pyran-7,4′-piperidine]-3-yl]methanol] as the molecule, how does the IC50 read?
Its IC50 is less than 100 nM.

C[C@H]1C[C@@]2(CCN1Cc1cn[nH]c1)OC[C@@H](O)c1cc(C(F)(F)F)sc12 [Compound 874, (2′S,4S,7R)-2′-methyl-1′-(1H-pyrazol-4-ylmethyl)-2-(trifluoromethyl)spiro[4,5-dihydrothieno[2,3-c]pyran-7,4′-piperidine]-4-ol] was tested. Which IC50 did it give?
The IC50 was less than 100 nM.

For C[C@H]1C[C@@]2(CCN1Cc1cnn(CCO)c1)OCCc1c2sc(C(F)(F)F)c1CO [Compound 875], which IC50 is on record?
The IC50 was less than 100 nM.

How did the IC50 turn out when C[C@H]1C[C@@]2(CCN1Cc1cnn(CC(C)(CO)CO)c1)OCCc1c2sc(C(F)(F)F)c1CO [Compound 876] was run?
Its IC50 is less than 100 nM.

Which IC50 does the source give for C[C@H]1C[C@@]2(CCN1Cc1ccc3c(c1)n(C)c(=O)n3C)OCCc1c2sc(C(F)(F)F)c1CO [Compound 877] here?
The IC50 was less than 100 nM.

Which IC50 does the source give for CC(O)c1c(C(F)(F)F)sc2c1CCO[C@@]21CCN(Cc2cnn(CCS(C)(=O)=O)c2)[C@@H](C)C1 (stereo partly shown) [Compound 878] here?
Its IC50 is less than 100 nM.

For CC(O)c1c(C(F)(F)F)sc2c1CCO[C@@]21CCN(Cc2cnn(CCS(C)(=O)=O)c2)[C@@H](C)C1 (stereo partly shown) [Compound 879], which IC50 is on record?
The IC50 was less than 100 nM.

With C[C@H]1C[C@@]2(CCN1Cc1cnn(CCS(C)(=O)=O)c1)OCC(O)c1cc(C(F)(F)F)sc12 (stereo partly shown) [Compound 880] as the molecule, how does the IC50 read?
Its IC50 is less than 100 nM.

How did the IC50 turn out when C[C@H]1C[C@@]2(CCN1Cc1cnn(C3CN(S(C)(=O)=O)C3)c1)OCCc1c2sc(C(F)(F)F)c1CO [Compound 883] was run?
The IC50 was less than 100 nM.

Which IC50 does the source give for C[C@H]1C[C@@]2(CCN1Cc1cnn(C3CN(S(C)(=O)=O)C3)c1)OC[C@@H](O)c1cc(C(F)(F)F)sc12 [Compound 884] here?
Its IC50 is less than 100 nM.

For C[C@H]1C[C@@]2(CCN1Cc1cnn(CCO)c1)OC[C@@H](O)c1cc(C(F)(F)F)sc12 [Compound 885], which IC50 is on record?
The IC50 was less than 100 nM.

C[C@H]1C[C@@]2(CCN1Cc1cnn(CC(=O)N(C)C)c1)OC[C@@H](O)c1cc(C(F)(F)F)sc12 [Compound 886] was tested. Which IC50 did it give?
The IC50 was less than 100 nM.

C[C@H]1C[C@@]2(CCN1Cc1cnn(C[C@H](O)C(C)(C)O)c1)OCCc1c2sc(C(F)(F)F)c1CO [Compound 887, (2S)-1-[4-[[(2′S, 7R)-3-(hydroxymethyl)-2′-methyl-2-(trifluoromethyl)spiro[4,5-dihydrothieno[2,3-c]pyran-7,4′-piperidine]-1′-yl]methyl]pyrazol-1-yl]-3-methyl-butane-2,3-diol] was tested. Which IC50 did it give?
Its IC50 is less than 100 nM.

How did the IC50 turn out when C[C@H]1C[C@@]2(CCN1Cc1cnn(C[C@@H](O)C(C)(C)O)c1)OCCc1c2sc(C(F)(F)F)c1CO [Compound 888, (2R)-1-[4-[[(2′S, 7R)-3-(hydroxymethyl)-2′-methyl-2-(trifluoromethyl)spiro[4,5-dihydrothieno[2,3-c]pyran-7,4′-piperidine]-1′-yl]methyl]pyrazol-1-yl]-3-methyl-butane-2,3-diol] was run?
Its IC50 is less than 100 nM.

With C[C@H]1C[C@@]2(CCN1Cc1cnn(C[C@H](O)C(C)(C)O)c1)OC[C@@H](O)c1cc(C(F)(F)F)sc12 [Compound 889, (2S)-1-[4-[[(2′S,4S,7R)-4-hydroxy-2′-methyl-2-(trifluoromethyl)spiro[4,5-dihydrothieno[2,3-c]pyran-7,4′-piperidine]-1′-yl]methyl]pyrazol-1-yl]-3-methyl-butane-2,3-diol] as the molecule, how does the IC50 read?
The IC50 was less than 100 nM.

With C[C@H]1C[C@@]2(CCN1Cc1cnn(C[C@@H](O)C(C)(C)O)c1)OC[C@@H](O)c1cc(C(F)(F)F)sc12 [Compound 890, (2R)-1-[4-[[(2′S,4S,7R)-4-hydroxy-2′-methyl-2-(trifluoromethyl)spiro[4,5-dihydrothieno[2,3-c]pyran-7,4′-piperidine]-1′-yl]methyl]pyrazol-1-yl]-3-methyl-butane-2,3-diol] as the molecule, how does the IC50 read?
The IC50 was less than 100 nM.

CC(C)C(O)Cn1cc(CN2CC[C@]3(C[C@@H]2C)OCCc2c3sc(C(F)(F)F)c2CO)cn1 (stereo partly drawn) [Compound 891, 1-[4-[[(2′S, 7R)-3-(hydroxymethyl)-2′-methyl-2-(trifluoromethyl)spiro[4,5-dihydrothieno[2,3-c]pyran-7,4′-piperidine]-1′-yl]methyl]pyrazol-1-yl]-3-methyl-butan-2-ol] was tested. Which IC50 did it give?
Its IC50 is less than 100 nM.

With C[C@H]1C[C@@]2(CCN1Cc1cnn(CC(O)CC(F)(F)F)c1)OCCc1c2sc(C(F)(F)F)c1CO (stereo partly shown) [Compound 892] as the molecule, how does the IC50 read?
Its IC50 is less than 100 nM.

For C[C@H]1C[C@@]2(CCN1Cc1cnn(CC(O)COCC(F)(F)F)c1)OCCc1c2sc(C(F)(F)F)c1CO (stereo partly shown) [Compound 893], which IC50 is on record?
Its IC50 is less than 100 nM.

With C[C@H]1C[C@@]2(CCN1Cc1cnn(CC(O)C(F)(F)F)c1)OCCc1c2sc(C(F)(F)F)c1CO (stereo partly shown) [Compound 894] as the molecule, how does the IC50 read?
The IC50 was less than 100 nM.

For C[C@H]1C[C@@]2(CCN1Cc1cnn(CC(C)(C)O)c1)OCCc1c2sc(C(F)(F)F)c1CO [Compound 895], which IC50 is on record?
The IC50 was less than 100 nM.

How did the IC50 turn out when C[C@H]1C[C@@]2(CCN1Cc1cnn(CCC(N)=O)c1)OCCc1c2sc(C(F)(F)F)c1CO [Compound 896, 3-[4-[[(2′S, 7R)-3-(hydroxymethyl)-2′-methyl-2-(trifluoromethyl)spiro[4,5-dihydrothieno[2,3-c]pyran-7,4′-piperidine]-1′-yl]methyl]pyrazol-1-yl]propanamide] was run?
The IC50 was less than 100 nM.

For C[C@H]1C[C@@]2(CCN1Cc1cnn(CC(=O)N(C)C)c1)OCCc1c2sc(C(F)(F)F)c1CO [Compound 897], which IC50 is on record?
Its IC50 is less than 100 nM.

With C[C@H]1C[C@@]2(CCN1Cc1cnn(CCCC(N)=O)c1)OCCc1c2sc(C(F)(F)F)c1CO [Compound 898] as the molecule, how does the IC50 read?
The IC50 was less than 100 nM.

For C[C@H]1C[C@@]2(CCN1Cc1cnn(C[C@H](O)CO)c1)OCCc1c2sc(C(F)(F)F)c1CO [Compound 899], which IC50 is on record?
The IC50 was 100 to 500 nM.

With CCNC(=O)CCn1cc(CN2CC[C@]3(C[C@@H]2C)OCCc2c3sc(C(F)(F)F)c2CO)cn1 [Compound 900] as the molecule, how does the IC50 read?
The IC50 was less than 100 nM.

CNC(=O)Cn1cc(CN2CC[C@]3(C[C@@H]2C)OCCc2c3sc(C(F)(F)F)c2CO)cn1 [Compound 901] was tested. Which IC50 did it give?
The IC50 was less than 100 nM.

C[C@H]1C[C@@]2(CCN1Cc1cnn(Cc3cnccn3)c1)OCCc1c2sc(C(F)(F)F)c1CO [Compound 902] was tested. Which IC50 did it give?
Its IC50 is less than 100 nM.

Which IC50 does the source give for C[C@H]1C[C@@]2(CCN1Cc1cnn(CC(=O)NC3CC3)c1)OCCc1c2sc(C(F)(F)F)c1CO [Compound 903] here?
Its IC50 is less than 100 nM.

With CCN(CC)C(=O)Cn1cc(CN2CC[C@]3(C[C@@H]2C)OCCc2c3sc(C(F)(F)F)c2CO)cn1 [Compound 904] as the molecule, how does the IC50 read?
The IC50 was less than 100 nM.

For C[C@H]1C[C@@]2(CCN1Cc1cnn(CC3CCOCC3)c1)OCCc1c2sc(C(F)(F)F)c1CO [Compound 905], which IC50 is on record?
Its IC50 is less than 100 nM.

COCCn1cc(CN2CC[C@]3(C[C@@H]2C)OCCc2c3sc(C(F)(F)F)c2CO)cn1 [Compound 906] was tested. Which IC50 did it give?
Its IC50 is less than 100 nM.

Which IC50 does the source give for C[C@H]1C[C@@]2(CCN1Cc1cnn(C3CS(=O)(=O)C3)c1)OCCc1c2sc(C(F)(F)F)c1CO [Compound 907] here?
The IC50 was less than 100 nM.

For C[C@@H](CO)Cn1cc(CN2CC[C@]3(C[C@@H]2C)OCCc2c3sc(C(F)(F)F)c2CO)cn1 [Compound 908], which IC50 is on record?
The IC50 was less than 100 nM.

For CC(C)NC(=O)Cn1cc(CN2CC[C@]3(C[C@@H]2C)OCCc2c3sc(C(F)(F)F)c2CO)cn1 [Compound 909], which IC50 is on record?
The IC50 was less than 100 nM.

With C[C@H]1C[C@@]2(CCN1Cc1cnn(CC3(C)COC3)c1)OCCc1c2sc(C(F)(F)F)c1CO [Compound 910] as the molecule, how does the IC50 read?
Its IC50 is 100 to 500 nM.

C[C@H]1C[C@@]2(CCN1Cc1cnn(C3CCS(=O)(=O)C3)c1)OCCc1c2sc(C(F)(F)F)c1CO (stereo partly drawn) [Compound 911, [(2′S, 7R)-1′-[[1-(1,1-dioxothiolan-3-yl)pyrazol-4-yl]methyl]-2′-methyl-2-(trifluoromethyl)spiro[4,5-dihydrothieno[2,3-c]pyran-7,4′-piperidine]-3-yl]methanol] was tested. Which IC50 did it give?
The IC50 was less than 100 nM.

Cc1cnc(Cn2cc(CN3CC[C@]4(C[C@@H]3C)OCCc3c4sc(C(F)(F)F)c3CO)cn2)cn1 [Compound 912] was tested. Which IC50 did it give?
The IC50 was less than 100 nM.

How did the IC50 turn out when C[C@H]1C[C@@]2(CCN1Cc1cnn(CC(=O)NCC(F)F)c1)OCCc1c2sc(C(F)(F)F)c1CO [Compound 913] was run?
The IC50 was less than 100 nM.
